From patent publication US20230107216A1, “PANTETHEINE DERIVATIVES AND USES THEREOF” (Comet Therapeutics, Inc., priority 2018, published 2023) come the findings set out here.

Where two headings read alike, the source gives them in different places.

Common to all, as to assay type: cell-based
In assay [1] the test system is HepG2 cells. The assay is described as follows: Glucose uptake (Glucose Uptake-Glo). The note with it: Homo sapiens, read-out: % increase in Glucose Uptake.
The subject of assay [2] is HepG2 cells. Nature of the assay: Mitochondrial membrane potential (MITO-ID MP detection Kit). The note with it: Homo sapiens, 168 h, 50 uM, 7 days, read-out: % decrease in Mitochondrial Membrane Potential. The protocol: HepG2 cells (ATCC, HB-8065) were cultured (5% CO2 at 37° C.) and plated in Poly-D-Lysine 384-Well plate (Corning, 356663) at a density of 160000 cells/mL in 50 μL/well. Culture and assay media consisted of DMEM (Gibco, 11995-065) supplemented with 1% Penicillin-Streptomycin and 10% FBS (Hyclone, SV30087.03).
MITO-ID® MP detection Kit (ENZ-51018) was used and manufacturer instructions followed. Cells were allowed to settle for 30 min at room temperature and further incubated overnight (37° C. and 5% CO2) for adherence. Next day, test compounds (50-10 μM) and vehicle DMSO (0.2%) were added at the recommended volumes to the 384-well plate for 7 days without media change using a Tecan compound dispenser. All the solutions and wash buffers were prepared and dispensed according to manufacturer's volumes for a 384-well plate format.

Assay [3] relates to Propionic Acidemia (PA) primary fibroblasts GM00371. The assay is described as follows: Mitochondrial respiration, XFe96 Extracellular Flux Analyzer (OCR/ECAR), PA fibroblasts GM00371. The note with it: Homo sapiens, Fibroblast.
Assay [4] has as its system Methylmalonic Acidemia (MMA) primary fibroblasts Tsi 5224. Nature of the assay: Mitochondrial respiration, XFe96 Extracellular Flux Analyzer (OCR/ECAR), MMA fibroblasts Tsi 5224.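 Also: relative to vehicle DMSO control.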 The note with it: Homo sapiens, Fibroblast, MMA Tsi 5224, assay condition A (10 mM glucose, 2 mM L-glutamine, 1 mM pyruvate, 10% FBS), read-out: Increase in Maximal Respiratory Capacity AUC. The protocol:
The effect of the compounds of the present disclosure on mitochondrial respiration was measured with a XFe96 Extracellular Flux Analyzer (Seahorse Bioscience, Agilent Technologies) and Oxygen consumption Rate (OCR) and Extracellular acidification rate (ECAR) determined.
Cell culture and treatments. Primary adherent fibroblasts were cultured in minimum essential medium (MEM) (Gibco, 25030081) supplemented with 2 mM L-Glutamine (Gibco, 25030081), 15% fetal bovine serum (FBS) (Gibco, 26400044) and 1% penicillin/streptomycin (Gibco, 5140122) at 37° C. and 5% CO2. Cells were collected for either passaging or experiment at ˜70-80% confluence. Cells were obtained by trypsinization and seeded at 20000 cells/well in cell culture microplates (Seahorse Bioscience, 101085-004) and allowed to adhere for 16 hours in culture media.
By profiling different primary cells and/or optimizing their culture media or environmental components one can select cell lines and/or conditions that are appropriate for the biological or disease model. In the present example, 24 hours prior to OCR and ECAR profiling, media was changed to Dulbecco's Modified Eagle Medium (DMEM, Agilent Seahorse 103575-100) with the appropriate supplements for the different primary cells (10 mM glucose, 2 mM L-glutamine, 1 mM pyruvate, 10% FBS; 1 mM glucose, 2 mM L-glutamine, 1 mM pyruvate, 10% FBS; 10 mM glucose, 10% FBS; 5 mM glucose 10% FBS; 1 mM glucose 10% FBS). Cells used in this example were: Propionic Acidemia (PA) (GM00371, GM03590 Coriell Institute for Medical Research, Tsi 6337, Tsi 4626, Tsi 3618 Trans-Hit Bio), Methylmalonic Acidemia (MMA) (GM01673, Coriell Institute for Medical Research, Tsi 5224 Trans-Hit Bio), Branched chain ketoacid dehydrogenase kinase (BCKDK) (GM00612, GM00649 Coriell Institute for Medical Research), Subnormal activation of pyruvate dehydrogenase complex (PDH) (GM01503 Coriell Institute for Medical Research), Very long-chain acyl-CoA dehydrogenase (VLCAD) (GM17475), Leigh Syndrome (LS) (GM03672, GM13411 Coriell Institute for Medical Research), Pyruvate Carboxylase Deficiency (PC) (GM00444 Coriell Institute for Medical Research), Glutaric Acidemia-I (GA) (GM10653), Friedreich's Ataxia (FXN) (GM04078 Coriell Institute for Medical Research, Huntington's disease (HD) (GM21756 Coriell Institute for Medical Research), Ornithine Transcarbamylase Deficiency (OTC) (GM12756 Coriell Institute for Medical Research), Kearns-Sayre Syndrome (KSS) (GM06225 Coriell Institute for Medical Research).
One hour before the assay, the cells were washed with freshly prepared unbuffered serum free-Seahorse XF Assay medium (Seahorse Bioscience, North America, USA, 103575-100) with the same supplements as for the previous 24 hour incubation.
After baseline measurements of OCR, cells were challenged with compounds of the present disclosure at different concentrations (10 to 50 μM) or vehicle (DMSO, 0.1%) and a post-compound baseline was recorded. OCR was measured after sequentially adding to each well 1 μg/ml oligomycin (inhibitor of ATP synthase Sigma-Aldrich, 753531), then maximal OCR was determined with carbonyl cyanide 4-(trifluoromethoxy) phenylhydrazone (FCCP, Sigma-Aldrich, C2920), (uncoupler of oxidative phosphorylation) and 0.5 μM of rotenone (Sigma-Aldrich, R8875) plus antimycin A (Sigma-Aldrich, A8674) (inhibitors of mitochondrial complex I and III) for determination of rotenone-antimycin insensitive respiration together with Hoechst for nuclear staining in situ when normalized to cell counts. After the analysis and nuclear staining, the XFp microplate was transferred to the Cytation 5, and the nuclear images were captured, the individual nuclei were identified and counted by BioTek Gen5 software. Data were expressed as pmol of O2 per minute and normalized by nuclear staining and baselined to pre-compound addition.
Assay conditions were as stated below.
Assay specifics on assay conditions are indicated below when readouts were normalized to cell counts. […]

In the case of `CC(=O)OCC(C)(C)[C@@H](O)C(=O)NCCC(=O)NCCSC(=O)/C=C/C(=O)O` [Compound 144, (2E)-4-[(2-[3-[(2R)-4-(acetyloxy)-2-hydroxy-3,3-dimethylbutanamido]propanamido]ethyl)sulfanyl]-4-oxobut-2-enoic acid], the activation at 50 µM in assay [1] is no less than 30%.

Regarding `C[C@H](O)CC(=O)SCCNC(=O)CCNC(=O)[C@H](O)C(C)(C)CO` [Compound 1246, (2R)-2,4-dihydroxy-N-{2-[(2-{[(3S)-3-hydroxybutanoyl]sulfanyl}ethyl)carbamoyl]ethyl}-3,3-dimethylbutanamide], in assay [2], the inhibition at 50 µM was greater than 50%.

For `C[C@H](NC(=O)OC(C)(C)C)C(=O)OCC(C)(C)[C@@H](O)C(=O)NCCC(=O)NCCS` [Compound 1278, (3R)-3-hydroxy-2,2-dimethyl-3-([2-[(2-sulfanylethyl)carbamoyl]ethyl]carbamoyl)propyl (2S)-2-[(tert-butoxycarbonyl)amino]propanoate], the activation at 10 µM in assay [1] was no less than 30%.

With `COC(=O)CCC(=O)SCCNC(=O)CCNC(=O)[C@H](OC(C)=O)C(C)(C)COC(C)=O` [Compound 214, methyl 4-[(2-[3-[(2R)-2,4-bis(acetyloxy)-3,3-dimethylbutanamido]propanamido]ethyl)sulfanyl]-4-oxobutanoate], in assay [1], the activation at 10 µM is no less than 20%. Further, the activation at 50 µM in assay [3] (assay condition A (10 mM glucose, 2 mM L-glutamine, 1 mM pyruvate, 10% FBS), read-out: Increase in Spare Capacity AUC) is no less than 50%; in assay [3] (assay condition D (1 mM glucose, 10% FBS), read-out: Increase in Spare Capacity AUC), no less than 10%.

As for `CC(C)(C)OC(=O)NCC(=O)OCC(C)(C)[C@@H](O)C(=O)NCCC(=O)NCCS` [Compound 1274, (3R)-3-hydroxy-2,2-dimethyl-3-([2-[(2-sulfanylethyl)carbamoyl]ethyl]carbamoyl)propyl 2-[(tert-butoxycarbonyl)amino]acetate], in assay [1], the activation at 50 µM is no less than 30%.

As for `COC(=O)CCC1(CC(=O)SCCNC(=O)CCNC(=O)[C@H](O)C(C)(C)COC(C)=O)OCC(C)(C)CO1` [Compound 1268, methyl 3-(2-[2-[(2-[3-[(2R)-4-(acetyloxy)-2-hydroxy-3,3-dimethylbu-tanamido]propanamido]ethyl)sulfanyl]-2-oxoethyl]-5,5-dimethyl-1,3-dioxan-2-yl)propanoate], the activation at 50 µM in assay [1] is no less than 30%.

For the compound `CC(=O)SCCNC(=O)CCNC(=O)[C@H](O)C(C)(C)CO` [Compound 1241, (R)—S-(2-(3-(2,4-dihydroxy-3,3-dimethylbutanamido)propanamido)ethyl) ethanethioate], the activation at 10 µM in assay [1] was no less than 30%.

As to `C[C@H](NC(=O)OC(C)(C)C)C(=O)OCC(C)(C)[C@@H](O)C(=O)NCCC(=O)NCCSSCCNC(=O)CCNC(=O)[C@H](O)C(C)(C)COC(=O)[C@H](C)NC(=O)OC(C)(C)C` [Compound 1277, (3R)-3-[[2-([2-[(2-[3-[(2R)-4-[[(2S)-2-[(tert-butoxycarbonyl)amino]propanoyl]oxy]-2-hydroxy-3,3-dimethylbutanamido]propanamido]ethyl)disulfanyl]ethyl]carbamoyl)ethyl]carbamoyl]-3-hydroxy-2,2-dimethylpropyl (2S)-2-[(tert-butoxycarbonyl)amino]propanoate], the activation at 10 µM in assay [1] is no less than 10%.

Consider `CC(=O)SCCNC(=O)CCNC(=O)[C@H](O)C(C)(C)COC(=O)O[C@H](CC(=O)[O-])C[N+](C)(C)C` [Compound 183, (12R,18R)-12-hydroxy-13,13-dimethyl-2,7,11,16-tetraoxo-18-((trimethylammonio)methyl)-15,17-dioxa-3-thia-6,10-diazaicosan-20-oate], for which the activation at 10 µM in assay [1] was no less than 30%; in assay [4], no less than 10%.

Consider `CC(=O)O[C@@H](C(=O)NCCC(=O)NCCSC(=O)CCC(=O)O)C(C)(C)CO` [Compound 211, 4-[(2-[3-[(2R)-2-(acetyloxy)-4-hydroxy-3,3-dimethylbutanamido]propanamido]ethyl)sulfanyl]-4-oxobutanoic acid], for which, in assay [1], the activation at 50 µM was no less than 30%.

`CC(=O)OCC(C)(C)[C@@H](OC(C)=O)C(=O)NCCC(=O)NCCS` [Compound 1263, (1R)-3-(acetyloxy)-2,2-dimethyl-1-([2-[(2-sulfanylethyl)carbamoyl]ethyl]carbamoyl)propyl acetate]: the activation at 50 µM in assay [1] is no less than 30%.

Consider `CCC(=O)OCC(C)(C)[C@@H](O)C(=O)NCCC(=O)NCCSSCCNC(=O)CCNC(=O)[C@H](O)C(C)(C)COC(=O)CC` [Compound 1271, (3R)-3-hydroxy-3-[[2-([2-[(2-[3-[(2R)-2-hydroxy-3,3-dimethyl-4-(propanoyloxy)butanamido]propanamido]ethyl)disulfanyl]ethyl]carbamoyl)ethyl]carbamoyl]-2,2-dimethylpropyl propanoate], for which, in assay [1], the activation at 10 µM is no less than 10%.

`CC(C(=O)O)C(=O)SCCNC(=O)CCNC(=O)[C@H](O)C(C)(C)CO` (stereo partly shown) [Compound 393]: the activation at 10 µM in assay [1] was no less than 30%; in assay [4], no less than 10%.

For the compound `CC(=O)NCC(=O)O[C@@H](C(=O)NCCC(=O)NCCSC(=O)CCC(=O)O)C(C)(C)CO` [Compound 1296, 4-[(2-[3-[(2R)-2-[(2-acetamidoacetyl)oxy]-4-hydroxy-3,3-dimethylbutanamido]propanamido]ethyl)sulfanyl]-4-oxobutanoic acid], the activation at 10 µM is no less than 10% in assay [1] and no less than 30% in assay [3] (assay condition D (1 mM glucose, 10% FBS), 10 μM, read-out: Increase in Spare Capacity AUC).

On to `CC(=O)SCCNC(=O)CCNC(=O)[C@H](O)C(C)(C)COC(=O)OCC[N+](C)(C)C` [Compound 503, [2-([[(3R)-3-[(2-[[2-(acetylsulfanyl)ethyl]carbamoyl]ethyl)carbamoyl]-3-hydroxy-2,2-dimethylpropoxy]carbonyl]oxy)ethyl]trimethylazanium], for which the activation at 50 µM in assay [1] is no less than 20%; in assay [3] (assay condition A (10 mM glucose, 2 mM L-glutamine, 1 mM pyruvate, 10% FBS), read-out: Increase in Maximal Respiratory Capacity AUC), no less than 10%.

For the compound `CC(=O)SCCNC(=O)CCNC(=O)[C@H](O)C(C)(C)COC(=O)CNC(=O)OC(C)(C)C` [Compound 1275, (3R)-3-[(2-[[2-(acetylsulfanyl)ethyl]carbamoyl]ethyl)carbamoyl]-3-hydroxy-2,2-dimethylpropyl 2-[(tert-butoxycarbonyl)amino]acetate], the activation at 10 µM in assay [1] was no less than 20%.
